This is an account of results in ChEMBL document CHEMBL4616632, “Discovery of Cyclic Boronic Acid QPX7728, an Ultrabroad-Spectrum Inhibitor of Serine and Metallo-β-lactamases” (J Med Chem, 2020).

Test [1] deals with Klebsiella pneumoniae. The test is described as follows: Inhibition of Klebsiella pneumoniae KP1009 CTX-M-15 assessed as minimum concentration of compound required to reduce the MIC of aztreonam to 4 ug/ml.
Test [2] relates to Klebsiella pneumoniae. The test is described as follows: Inhibition of Klebsiella pneumoniae KP1081 NDM-1 assessed as minimum concentration of compound required to reduce the MIC of biapenem to 1 ug/ml.
The subject of test [3] is Klebsiella pneumoniae. The test is described as follows: Inhibition of Klebsiella pneumoniae KP1054 VIM-1 assessed as minimum concentration of compound required to reduce the MIC of biapenem to 1 ug/ml.
Test [4] deals with Beta-lactamase (Klebsiella pneumoniae) (UniProt Q93LQ9). In words: Inhibition of Klebsiella pneumoniae KP1004 KPC-2 assessed as minimum concentration of compound needed to reduce the MIC of aztreonam to 4 ug/ml.
Beta-lactamase (Klebsiella pneumoniae), sequence (Q93LQ9 as listed by the source): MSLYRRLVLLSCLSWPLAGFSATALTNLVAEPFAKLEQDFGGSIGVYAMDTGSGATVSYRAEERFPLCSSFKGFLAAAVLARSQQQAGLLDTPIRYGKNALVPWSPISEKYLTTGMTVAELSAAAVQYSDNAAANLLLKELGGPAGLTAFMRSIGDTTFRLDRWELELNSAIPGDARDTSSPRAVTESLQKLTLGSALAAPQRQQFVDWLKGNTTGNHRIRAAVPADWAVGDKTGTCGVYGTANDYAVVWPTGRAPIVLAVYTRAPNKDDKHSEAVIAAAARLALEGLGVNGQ
For test [5], the system named is Pseudomonas aeruginosa. The test is described as follows: Inhibition of Pseudomonas aeruginosa PAM 2035 AmpC assessed as minimum concentration of compound needed to reduce the MIC of aztreonam to 4 ug/ml.
The subject of test [6] is Escherichia coli. In words: Inhibition of Escherichia coli ECM6625 SHV-5 assessed as minimum concentration of compound needed to reduce the MIC of aztreonam to 4 ug/ml.
The test system of test [7] is Escherichia coli. In words: Inhibition of Escherichia coli KP308 SHV-5 assessed as minimum concentration of compound required to reduce the MIC of aztreonam to 4 ug/ml.
Test [8] concerns Escherichia coli. The test is described as follows: Inhibition of Escherichia coli EC302 TEM-10 assessed as minimum concentration of compound needed to reduce the MIC of aztreonam to 4 ug/ml.
Test [9] relates to Escherichia coli. In words: Inhibition of Escherichia coli ECM6619 TEM-10 assessed as minimum concentration of compound needed to reduce the MIC of aztreonam to 4 ug/ml.
Test [10] concerns Klebsiella pneumoniae. The test is described as follows: Inhibition of Klebsiella pneumoniae KP1160 IMP-26 assessed as minimum concentration of compound needed to reduce the MIC of meropenem to 1 ug/ml.
Test [11] concerns Enterobacter cloacae. In words: Inhibition of Enterobacter cloacae ECL1002 AmpC assessed as minimum concentration of compound needed to reduce the MIC of aztreonam to 4 ug/ml.
Test [12] relates to Acinetobacter baumannii. In words: Inhibition of Acinetobacter baumannii AB1053 OXA-72 assessed as minimum concentration of compound needed to reduce the MIC of meropenem to 8 ug/ml.
Test [13] concerns the target Beta-lactamase OXA-23 (Acinetobacter baumannii) (UniProt Q9L4P2). The test is described as follows: Inhibition of Acinetobacter baumannii AB1054 OXA-23 assessed as minimum concentration of compound needed to reduce the MIC of meropenem to 8 ug/ml.

Beta-lactamase OXA-23 (Acinetobacter baumannii), sequence (Q9L4P2 whole entry): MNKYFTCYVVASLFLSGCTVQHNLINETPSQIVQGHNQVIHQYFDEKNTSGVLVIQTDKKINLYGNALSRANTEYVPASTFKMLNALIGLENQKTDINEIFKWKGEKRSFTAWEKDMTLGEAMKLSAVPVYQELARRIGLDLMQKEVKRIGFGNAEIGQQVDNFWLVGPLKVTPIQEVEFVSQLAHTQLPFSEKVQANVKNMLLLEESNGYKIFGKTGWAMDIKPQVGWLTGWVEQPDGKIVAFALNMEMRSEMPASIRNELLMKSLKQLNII

Take `COc1ccc2c(c1C(=O)O)OB(O)[C@@H](CCO)C2`: the MEC in test [1] turned out to be 20 µg/mL; in test [2], 2.5 µg/mL; in test [3] it was 2.5 µg/mL; in test [4], 5 µg/mL; in test [5] it was 20 µg/mL; in test [6] it was 20 µg/mL. Also, the MEC is 20 µg/mL in test [7]; more than 20 µg/mL in test [8]; more than 20 µg/mL in [9]; more than 20 µg/mL in [10]; 10 µg/mL in test [11]; 10 µg/mL in test [12]. The MEC in [13] amounted to 10 µg/mL.
For the compound `COc1ccc2c(c1C(=O)O)OB(O)CC21CC1`, the MEC in test [1] amounted to 2.5 µg/mL; in [2], 2.5 µg/mL; in [3], 20 µg/mL; in [4] it was 1.25 µg/mL; in test [5] it was 10 µg/mL; in [6] it was 1.25 µg/mL. Moreover, the MEC was 1.25 µg/mL in test [7]; 5 µg/mL in [8]; 5 µg/mL in [9]; more than 20 µg/mL in test [10]; 2.5 µg/mL in [11]; 1.25 µg/mL in test [12]. In addition, in test [13], the MEC is 2.5 µg/mL.
In the case of `O=C(O)c1cccc2c1OB(O)CC2`, the MEC in [1] was 20 µg/mL; in test [2], 1.25 µg/mL; in test [3] it was 10 µg/mL; in [4], 0.6 µg/mL; in [5] it was 0.6 µg/mL; in test [6], 20 µg/mL. The MEC is 10 µg/mL in [9]; more than 20 µg/mL in test [10]; 5 µg/mL in test [11]; more than 20 µg/mL in test [12]; 20 µg/mL in [13].
For the compound `O=C(O)c1cccc2c1OB(O)[C@H]1C[C@@H]21`, the MEC in [1] worked out at 10 µg/mL; in [2] it was 1.25 µg/mL; in test [3], 10 µg/mL; in [4] it was 0.16 µg/mL; in test [5], 2.5 µg/mL; in test [6] it was 5 µg/mL. For the same compound, the MEC is 5 µg/mL in [7]; 5 µg/mL in test [8]; 5 µg/mL in test [9]; more than 20 µg/mL in test [10]; 10 µg/mL in test [11]; 20 µg/mL in [12]. Further, the MEC in test [13] stood at 20 µg/mL.
Regarding `O=C(O)c1cccc2c1OB(O)[C@@H]1C[C@H]21`, the MEC in test [1] is 0.6 µg/mL; in test [2] it was 0.6 µg/mL; in test [3], 0.16 µg/mL; in test [4], 0.16 µg/mL; in [5] it was 0.6 µg/mL; in test [6], 0.3 µg/mL. The MEC is 0.3 µg/mL in test [7]; 0.16 µg/mL in test [8]; 0.16 µg/mL in test [9]; 20 µg/mL in test [10]; 0.3 µg/mL in test [11]; 5 µg/mL in test [12]. Besides, in test [13], the MEC amounted to 10 µg/mL.
Turning to `COc1ccc2c(c1C(=O)O)OB(O)C=C2`, the MEC was 10 µg/mL in test [1]; more than 20 µg/mL in test [2]; more than 20 µg/mL in test [3]; 2.5 µg/mL in [4]; 10 µg/mL in test [5]; 20 µg/mL in [6]. For the same compound, the MEC was 20 µg/mL in test [7]; 20 µg/mL in [8]; 20 µg/mL in [9]; more than 20 µg/mL in [10]; 10 µg/mL in [11]; 20 µg/mL in test [12]. The MEC in test [13] is more than 20 µg/mL.
Regarding `C[C@@H]1Cc2cccc(C(=O)O)c2OB1O`, the MEC was more than 20 µg/mL in test [1]; 10 µg/mL in test [2]; 20 µg/mL in test [3]; 5 µg/mL in test [4]; 1.25 µg/mL in test [5]; more than 20 µg/mL in test [6]. The MEC in test [7], in test [8], in test [9], in [10], in test [11] and in test [12] was more than 20 µg/mL each time. For the same compound, the MEC in test [13] was more than 20 µg/mL.
With `COc1ccc2c(c1C(=O)O)OB(O)C1CC21` (stereo unspecified), the MEC in test [1] turned out to be 0.3 µg/mL; in [2], 0.6 µg/mL; in [3] it was 0.08 µg/mL; in [4], 0.16 µg/mL; in [5], 5 µg/mL; in [6], 0.3 µg/mL. Besides, the MEC in test [7] came to 0.3 µg/mL; in test [8] it was 0.3 µg/mL; in [9] it was 0.3 µg/mL; in test [10] it was 5 µg/mL; in test [11] it was 0.3 µg/mL; in test [12], 0.6 µg/mL. In test [13], the MEC amounted to 1.25 µg/mL.
`C[C@H]1Cc2cccc(C(=O)O)c2OB1O`: the MEC is more than 20 µg/mL in [1]; 1.25 µg/mL in test [2]; 5 µg/mL in [3]; 1.25 µg/mL in test [4]; 1.25 µg/mL in test [5]; 20 µg/mL in test [6]. The MEC is 20 µg/mL in test [7]; more than 20 µg/mL in [8]; more than 20 µg/mL in [9]; more than 20 µg/mL in test [10]; 20 µg/mL in test [11]; more than 20 µg/mL in test [12]. Also, the MEC in [13] is more than 20 µg/mL.
Turning to `COc1ccc2c(c1C(=O)O)OB(O)C(CO)C2` (stereo unspecified), the MEC is more than 20 µg/mL in test [1]; more than 20 µg/mL in test [2]; more than 20 µg/mL in test [3]; 10 µg/mL in [4]; more than 20 µg/mL in [5]; more than 20 µg/mL in test [6]. The MEC in test [7] is more than 20 µg/mL; in test [8] it was more than 20 µg/mL; in [9], more than 20 µg/mL; in test [10] it was more than 20 µg/mL; in [11] it was 20 µg/mL; in [12] it was more than 20 µg/mL. In addition, the MEC in test [13] was more than 20 µg/mL.
Take `O=C(O)c1c(F)ccc2c1OB(O)CC2`: the MEC in [1] worked out at 0.6 µg/mL; in [2] it was 0.6 µg/mL; in [3], 5 µg/mL; in [4] it was 0.16 µg/mL; in [5] it was 0.6 µg/mL; in test [6] it was 0.6 µg/mL. Besides, the MEC in [9] was 0.08 µg/mL; in [10], more than 20 µg/mL; in test [11], 0.16 µg/mL; in test [12] it was 2.5 µg/mL; in test [13], 2.5 µg/mL.
Turning to `COc1ccc2c(c1C(=O)O)OB(O)C1C2C1(F)F` (stereo unspecified), the MEC amounted to 1.25 µg/mL in test [1]; 2.5 µg/mL in test [2]; 10 µg/mL in test [3]; 1.25 µg/mL in test [4]; 10 µg/mL in test [5]; 1.25 µg/mL in test [6]. The MEC in [7] is 1.25 µg/mL; in test [8], 5 µg/mL; in test [9], 5 µg/mL; in test [10], more than 20 µg/mL; in test [11] it was 10 µg/mL; in test [12] it was 5 µg/mL. For the same compound, the MEC in test [13] came out at 10 µg/mL.
Take `COc1ccc2c(c1C(=O)O)OB(O)C1(CO)CC21` (stereo unspecified): the MEC was 10 µg/mL in [1]; 0.6 µg/mL in [2]; 0.16 µg/mL in [3]; 1.25 µg/mL in [4]; 20 µg/mL in test [5]; 5 µg/mL in test [6]. For the same compound, the MEC in test [7] came to 5 µg/mL; in [8], 5 µg/mL; in test [9], 5 µg/mL; in [10], 2.5 µg/mL; in test [11], 2.5 µg/mL; in [12], 2.5 µg/mL. Further, the MEC in [13] amounted to 10 µg/mL.
For the compound `O=C(O)c1nccc2c1OB(O)[C@H]1C[C@@H]21`, the MEC in [1] amounted to 20 µg/mL; in [2] it was 20 µg/mL; in [3], 20 µg/mL; in test [4], 1.25 µg/mL; in test [5], 10 µg/mL; in [6], 10 µg/mL. The MEC in test [7] is 10 µg/mL; in test [8], 5 µg/mL; in test [9] it was 5 µg/mL; in test [10], more than 20 µg/mL; in test [11], 20 µg/mL; in test [12], 5 µg/mL. Also, the MEC in [13] is 10 µg/mL.
On to `COc1ccc2c(c1C(=O)O)OB(O)C1CCC21` (stereo unspecified), for which the MEC was determined as 10 µg/mL in test [1]; 10 µg/mL in [2]; 5 µg/mL in [3]; 5 µg/mL in [4]; 10 µg/mL in [5]; 10 µg/mL in test [6]. The MEC in test [7] came to 10 µg/mL; in test [8], 10 µg/mL; in test [9] it was 10 µg/mL; in test [10], 20 µg/mL; in [11] it was 10 µg/mL; in test [12], 5 µg/mL. In [13], the MEC stood at 10 µg/mL.
With `N#CCOc1ccc2c(c1C(=O)O)OB(O)[C@@H](Sc1nncs1)C2`, the MEC was more than 20 µg/mL in test [1]; 2.5 µg/mL in test [2]; 2.5 µg/mL in test [3]; 20 µg/mL in test [4]; more than 20 µg/mL in [5]; 10 µg/mL in test [7]. Further, the MEC in test [8] was 20 µg/mL; in [10], more than 20 µg/mL; in test [11], more than 20 µg/mL.
For the compound `O=C(O)c1nccc2c1OB(O)CC2`, the MEC in test [1] was found to be 2.5 µg/mL; in test [2], 1.25 µg/mL; in test [3] it was 20 µg/mL; in test [4], 0.16 µg/mL; in [5], 0.3 µg/mL; in test [6], 5 µg/mL. In addition, the MEC in test [9] was 0.08 µg/mL; in [10] it was more than 20 µg/mL; in test [11], 1.25 µg/mL; in [12] it was 1.25 µg/mL; in test [13], 2.5 µg/mL.
